US5556878A, “Δ^6,7 -taxols antineoplatic use and pharmaceutical compositions containing them” (The Upjohn Company, priority 1994, dated 1996)
In brackets after ≈: the same amount, converted by molar mass. Read-outs that look alike come from different tables or passages of the source.

Experiments:
L1210 leukemia = L1210 leukemia cell proliferation inhibition (Table I); format: cell-based; settings: Mus musculus
Description: The biological activity of the compounds of this invention has been further confirmed using well known procedures against L1210 leukemia and the results set forth in Table I. The results were obtained using standard well known procedure (Li, L. H.; Kuentzel, S. L.; Murch, L. L.; Pschigoga, L. M.; and W. C. Krueger, "Comparative biological and biochemical effects of nogalamycin and its analogs on L1210 leukemia," Cancer Res. 39:4816-4822 (1979)). The results are expressed as an IC50 which is the drug concentration required to inhibit cell proliferation to 50% of that of untreated control cells. Lower numbers indicated greater activity.

[1] = system: A2780 (human ovarian carcinoma) cells; assay: Cytotoxicity in A2780 (human ovarian carcinoma) cells in culture (IC90); format: cell-based; settings: read-out: IC90 (90% growth inhibitory concentration)
Description: (§1) The biological activity of the 7-deoxy-7-halotaxol compounds (Formula III) of the invention has been confirmed using well known procedures.

tubulin = assay: In vitro tubulin polymerization assay after Gaskin et al.; format: biochemical; settings: 20° C.; for induction of tubulin polymerization in vitro: compared with taxol
Description: (§2) The biological activity of the 7-deoxy-7β,8β-methanotaxol compounds (Formula II) of the invention has been confirmed using well known procedures.
as §1

[2] = system: L1210 mouse leukemia carcinoma cells; assay: Cytotoxicity in L1210 mouse leukemia carcinoma cells in culture (IC90); format: cell-based; settings: read-out: IC90 (90% growth inhibitory concentration)
Description: as §2

[3] = L1210, drug concentration required to inhibit cell proliferation to 50% of untreated control cells, read-out: L1210 (IC50 μg/ml)
[4] = L1210, read-out: L1210 (IC50 μg/ml)

| Compound | IC50 (L1210 leukemia; [3]) | further results |
| --- | --- | --- |
| CC(=O)O[C@H]1C(=O)[C@]23C[C@H]2C[C@H]2OC[C@@]2(OC(C)=O)[C@H]3[C@H](OC(=O)c2ccccc2)[C@]2(O)C[C@H](OC(=O)[C@H](OC(=O)OCC(Cl)(Cl)Cl)[C@@H](NC(=O)c3ccccc3)c3ccccc3)C(C)=C1C2(C)C [Compound 14AA, 2'-{[(2,2,2-Trichloroethyl)oxy]carbonyl}-7-deoxy-7β,8β-methanotaxol] | > 0.1 µg/mL | – |
| CC(=O)O[C@H]1C(=O)[C@]2(C)C=C[C@H]3OC[C@@]3(OC(C)=O)[C@H]2[C@H](OC(=O)c2ccccc2)[C@]2(O)C[C@H](OC(=O)[C@H](O)[C@@H](NC(=O)NC(C)(C)C)c3ccccc3)C(C)=C1C2(C)C [Compound 16F, 13-(N-t-Butylurea-β-phenyl-isoserinyl)-Δ^6,7-baccatin III] | – | IC50 (L1210 leukemia; [4]): 0.0032 µg/mL (≈ 0.00385 µM) |
| CC(=O)O[C@H]1C(=O)[C@]23C[C@H]2C[C@H]2OC[C@@]2(OC(C)=O)[C@H]3[C@H](OC(=O)c2ccccc2)[C@]2(O)C[C@H](OC(=O)[C@H](O)[C@@H](NC(=O)OC(C)(C)C)c3ccccc3)C(C)=C1C2(C)C [Compound 23, N-Debenzoyl-N-(t-butyl)oxycarbonyl-7-deoxy-7β,8β-methanotaxol] | 0.0046 µg/mL (≈ 0.00553 µM) | – |
| CC(=O)O[C@H]1C(=O)[C@]2(C)C=C[C@H]3OC[C@@]3(OC(C)=O)[C@H]2[C@H](OC(=O)c2ccccc2)[C@]2(O)C[C@H](OC(=O)[C@H](OC(=O)OCC(Cl)(Cl)Cl)[C@@H](NC(=O)c3ccccc3)c3ccccc3)C(C)=C1C2(C)C [Compound 15AA, 2'-{[(2,2,2-Trichloroethyl)oxy]carbonyl)-7-deoxy-Δ^6,7-taxol] | 0.012 µg/mL (≈ 0.0119 µM) | – |
| CC(=O)O[C@H]1C(=O)[C@]2(C)C(F)C[C@H]3OC[C@@]3(OC(C)=O)[C@H]2[C@H](OC(=O)c2ccccc2)[C@]2(O)C[C@H](OC(=O)[C@H](OC(=O)OCC(Cl)(Cl)Cl)[C@@H](NC(=O)c3ccccc3)c3ccccc3)C(C)=C1C2(C)C (stereo partly drawn) [Compound 13AA, 2'-{[(2,2,2-Trichloroethyl)-oxy]carbonyl)-7-deoxy-7-fluorotaxol] | 0.054 µg/mL (≈ 0.0524 µM) | – |
| CC(=O)O[C@H]1C(=O)[C@]2(C)C=C[C@H]3OC[C@@]3(OC(C)=O)[C@H]2[C@H](OC(=O)c2ccccc2)[C@]2(O)C[C@H](OC(=O)[C@H](O)[C@@H](NC(=O)c3ccccc3)c3ccccc3)C(C)=C1C2(C)C [Compound 16A, 7-Deoxy-Δ^6,7-taxol] | 0.0042 µg/mL (≈ 0.00502 µM) | – |
| CC(=O)O[C@H]1C(=O)[C@]2(C)C=C[C@H]3OC[C@@]3(OC(C)=O)[C@H]2[C@H](OC(=O)c2ccccc2)[C@]2(O)C[C@H](OC(=O)[C@H](O)[C@@H](NC(=O)OC(C)(C)C)c3ccccc3)C(C)=C1C2(C)C [Compound 16D, N-Debenzoyl-N-(t-butyl)oxycarbonyl-7-deoxy-Δ^6,7-taxol] | – | IC50 (L1210 leukemia; [4]): 0.0016 µg/mL (≈ 0.00192 µM) |
| CC(=O)O[C@H]1C(=O)[C@]2(C)C(F)C[C@H]3OC[C@@]3(OC(C)=O)[C@H]2[C@H](OC(=O)c2ccccc2)[C@]2(O)C[C@H](OC(=O)[C@H](O)[C@@H](NC(=O)c3ccccc3)c3ccccc3)C(C)=C1C2(C)C (stereo partly drawn) [Compound IIIb, 7-Deoxy-7-fluorotaxol] | 0.01 µg/mL (≈ 0.0117 µM) | IC90 [1]: 0.016 µg/mL (≈ 0.0187 µM); potency in tubulin polymerization assay relative to taxol (tubulin): approximately half as potent as taxol; induction of tubulin polymerization in vitro (tubulin): able to induce tubulin polymerization in vitro at 20 °C in a manner very similar to taxol |
| CC(=O)O[C@@]12CO[C@@H]1C[C@H](O)[C@@]1(C)C(=O)[C@H](O)C3=C(C)[C@@H](OC(=O)[C@H](O)[C@@H](NC(=O)OC(C)(C)C)c4ccccc4)C[C@@](O)([C@@H](OC(=O)c4ccccc4)[C@H]21)C3(C)C [Taxotere, reference compound] | 0.004 µg/mL (≈ 0.00495 µM) | – |
| CC(=O)O[C@H]1C(=O)[C@]23C[C@H]2C[C@H]2OC[C@@]2(OC(C)=O)[C@H]3[C@H](OC(=O)c2ccccc2)[C@]2(O)C[C@H](OC(=O)[C@H](OC(=O)OCC(Cl)(Cl)Cl)[C@@H](NC(=O)OC(C)(C)C)c3ccccc3)C(C)=C1C2(C)C [Compound 14DA, N-Debenzoyl-N-(t-butyl)oxycarbonyl-2'-{[(2,2,2-trichloroethyl)oxy]carbonyl}-7-deoxy-7β,8β-methanotaxol] | 0.012 µg/mL (≈ 0.0119 µM) | – |
| CC(=O)O[C@H]1C(=O)[C@]23C[C@H]2C[C@H]2OC[C@@]2(OC(C)=O)[C@H]3[C@H](OC(=O)c2ccccc2)[C@]2(O)C[C@H](OC(=O)[C@H](O)[C@@H](NC(=O)c3ccccc3)c3ccccc3)C(C)=C1C2(C)C [Compound IIb, 7-Deoxy-7β,8β-methanotaxol] | 0.012 µg/mL (≈ 0.0144 µM) | IC90 [2]: 0.025 µg/mL (≈ 0.0299 µM); induction of tubulin polymerization in vitro (tubulin): able to induce tubulin polymerization in vitro at 20 °C in a manner very similar to taxol |
| CC(=O)O[C@H]1C(=O)[C@]2(C)C(F)C[C@H]3OC[C@@]3(OC(C)=O)[C@H]2[C@H](OC(=O)c2ccccc2)[C@]2(O)C[C@H](OC(=O)[C@H](OC(=O)OCC(Cl)(Cl)Cl)[C@@H](NC(=O)OC(C)(C)C)c3ccccc3)C(C)=C1C2(C)C (stereo partly drawn) [Compound 13DA, N-Debenzoyl-N-(t-butyl)oxycarbonyl-2'-{[(2,2,2-trichloroethyl)oxy]carbonyl}-7-deoxy-7-fluorotaxol] | 0.015 µg/mL (≈ 0.0146 µM) | – |
| CC(=O)O[C@H]1C(=O)[C@@]2(C)[C@H]([C@H](OC(=O)c3ccccc3)[C@]3(O)C[C@H](OC(=O)[C@H](O)[C@@H](NC(=O)c4ccccc4)c4ccccc4)C(C)=C1C3(C)C)[C@]1(OC(C)=O)CO[C@@H]1C[C@@H]2O [Taxol] | 0.015 µg/mL (≈ 0.0176 µM) | IC90 [2]: 0.06 µg/mL (≈ 0.0703 µM); IC90 [1]: 0.007 µg/mL (≈ 0.0082 µM) |
| CC(=O)O[C@H]1C(=O)[C@]2(C)C(F)C[C@H]3OC[C@@]3(OC(C)=O)[C@H]2[C@H](OC(=O)c2ccccc2)[C@]2(O)C[C@H](OC(=O)[C@H](O)[C@@H](NC(=O)OC(C)(C)C)c3ccccc3)C(C)=C1C2(C)C (stereo partly drawn) [Compound 20, N-Debenzoyl-N-(t-butyl)oxycarbonyl-7-deoxy-7-fluorotaxol] | 0.0038 µg/mL (≈ 0.00446 µM) | – |
